Test results as given in ChEMBL document CHEMBL1201862, “PubChem BioAssay data set” (2004).
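48-hour exposure; five concentrations; linearly interpolated endpoints. GI50 is the concentration that inhibits growth by half.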 Calls of active or inactive are those of the source. Rule as the data show it: active = GI50 up to about 1.1 µM and inactive = higher.

Columns and labels:
Assay in all cases: NCI-60 cell line screen, 48 h
ACHN = tested on: ACHN
COLO 205 = tested on: COLO 205
HCT-116 = tested on: HCT-116
K562 = tested on: K562
MCF7 = tested on: MCF7
NCI-H23 = tested on: NCI-H23
NCI-H460 = tested on: NCI-H460
OVCAR-3 = tested on: OVCAR-3
OVCAR-4 = tested on: OVCAR-4
OVCAR-8 = tested on: OVCAR-8
RXF 393 = tested on: RXF 393
SF-268 = tested on: SF-268
SK-MEL-28 = tested on: SK-MEL-28
SK-MEL-5 = tested on: SK-MEL-5
SK-OV-3 = tested on: SK-OV-3
SNB-19 = tested on: SNB-19
UACC-62 = tested on: UACC-62
UO-31 = tested on: UO-31
SF-539 = tested on: SF-539

Measured: GI50

Oc1ccc(-c2nc(-c3cccnc3)c(-c3ccc(F)cc3)[nH]2)cc1
inactive: ACHN 20.5 µM | COLO 205 19.5 µM | HCT-116 17.4 µM | K562 16 µM | MCF7 16 µM | NCI-H23 12.7 µM | NCI-H460 23.3 µM | OVCAR-3 16.7 µM | OVCAR-4 17.7 µM | OVCAR-8 17.9 µM | RXF 393 17.6 µM | SF-268 22.5 µM | SK-MEL-28 19.9 µM | SK-MEL-5 16.3 µM | SK-OV-3 23.4 µM | SNB-19 25.2 µM | UACC-62 16 µM | UO-31 > 10 µM

CC(=O)ONC(C(=O)C(C)(C)C)C(=O)C(C)(C)C
inactive: ACHN > 100 µM | COLO 205 > 100 µM | HCT-116 > 100 µM | K562 > 100 µM | MCF7 > 100 µM | NCI-H23 > 100 µM | NCI-H460 > 100 µM | OVCAR-3 > 100 µM | OVCAR-4 > 100 µM | OVCAR-8 > 100 µM | RXF 393 > 100 µM | SF-268 > 100 µM | SF-539 > 100 µM | SK-MEL-28 > 100 µM | SK-MEL-5 > 100 µM | SK-OV-3 > 100 µM | SNB-19 > 100 µM | UO-31 > 100 µM

NC(C(=O)OC(=O)c1ccccc1)C(=O)OC(=O)c1ccccc1
inactive: ACHN > 100 µM | COLO 205 > 100 µM | HCT-116 > 100 µM | K562 > 100 µM | MCF7 > 100 µM | NCI-H23 > 100 µM | NCI-H460 > 100 µM | OVCAR-3 > 100 µM | OVCAR-4 > 100 µM | OVCAR-8 > 100 µM | RXF 393 > 100 µM | SF-268 > 100 µM | SF-539 > 100 µM | SK-MEL-28 > 100 µM | SK-MEL-5 > 100 µM | SNB-19 > 100 µM | UO-31 > 100 µM

CC1=CC(O)CC(C)(C)C1/C=C/C(C)=C/C=C/C(C)=C/C=C/C=C(C)/C=C/C=C(C)/C=C/C1=C(C)CC(O)CC1(C)C (configuration not stated)
inactive: ACHN 16.6 µM | COLO 205 20.7 µM | HCT-116 15.7 µM | K562 38.3 µM | MCF7 27.7 µM | NCI-H23 24.7 µM | NCI-H460 32.6 µM | OVCAR-3 17.3 µM | OVCAR-4 28.8 µM | OVCAR-8 19.7 µM | RXF 393 18.5 µM | SK-MEL-28 17.5 µM | SK-MEL-5 16.6 µM | SK-OV-3 40.8 µM | SNB-19 53.2 µM | UACC-62 15 µM | UO-31 34 µM

CC(C)CC1c2[nH]c3ccccc3c2C[C@H]2C(=O)NC(COC(C)(C)C)C(=O)N12 (some centres not stated)
inactive: ACHN 26.8 µM | COLO 205 20.4 µM | HCT-116 18.6 µM | K562 31.7 µM | MCF7 31.6 µM | NCI-H23 28.7 µM | OVCAR-3 3.05 µM | OVCAR-4 30.5 µM | OVCAR-8 33.1 µM | RXF 393 14.7 µM | SF-268 23.6 µM | SK-MEL-28 31.5 µM | SK-MEL-5 21.8 µM | SK-OV-3 > 100 µM | SNB-19 33.9 µM | UACC-62 18.2 µM | UO-31 32.1 µM

CCOc1ccccc1NC(=O)C(=O)C(/C(=N/N)C(=O)OC)c1nc2ccc([N+](=O)[O-])cc2nc1O (configuration not stated)
inactive: HCT-116 > 100 µM | K562 > 100 µM | MCF7 > 100 µM | NCI-H460 > 100 µM | OVCAR-3 > 100 µM | OVCAR-4 > 100 µM | OVCAR-8 > 100 µM | RXF 393 > 100 µM | SF-268 > 100 µM | SF-539 > 100 µM | SK-MEL-28 > 100 µM | SK-MEL-5 > 100 µM | SK-OV-3 > 100 µM | UACC-62 > 100 µM

O=c1c(Cc2c(O)ccc3ccccc23)nnc2sc(-c3nn4c(=O)c(Cc5c(O)ccc6ccccc56)nnc4s3)nn12
inactive: ACHN 57.4 µM | HCT-116 > 100 µM | K562 > 100 µM | MCF7 18 µM | NCI-H23 54.7 µM | OVCAR-3 > 100 µM | OVCAR-4 > 100 µM | OVCAR-8 > 100 µM | RXF 393 22.9 µM | SF-268 8.63 µM | SNB-19 38.5 µM | UACC-62 29 µM | UO-31 > 100 µM

CCOC(=O)c1cc(C2CCN(c3ccccc3)C2=O)c(C(=O)/C=C(/C)N)[nH]1 (configuration not stated)
inactive: ACHN 40.6 µM | COLO 205 > 100 µM | HCT-116 12.7 µM | K562 68.2 µM | MCF7 54.6 µM | NCI-H23 92.3 µM | NCI-H460 33.2 µM | OVCAR-3 39.6 µM | OVCAR-4 42.5 µM | OVCAR-8 28.3 µM | RXF 393 37.9 µM | SF-268 30.2 µM | SK-MEL-28 29.1 µM | SK-MEL-5 40.8 µM | SK-OV-3 16.6 µM | SNB-19 21.3 µM | UACC-62 16.2 µM | UO-31 49.2 µM
